What was measured:
[1] = molecular target: T1, 5-HT4 receptor (Rattus norvegicus, UniProt Q62758); assay: biochemical; settings: carbachol (3 μM)-contracted rat esophagus TMM; 37° C.; tissues from 5 rats; read-out: 5-HT4 Agonism (Rat TMM) In Vitro Assay: EC50 Values
T1 construct: One 2 cm segment of intrathoracic esophagus proximal to the diaphragm was removed from male rats; from tissue; host or cells: rat intrathoracic oesophagus, inner tunica muscularis mucosae
Experimental: (§1) 5-HT4 agonist activity was determined in the in vitro rat tunice muscularis mucosae (TMM) assay. (Baxter et el., Naunyn Schmied Arch. Pharmacol, 1991, 343,439). The 5-HT4 agonist or antagonist activity and/or 5-HT3 antagonist activity of the compounds of the invention herein, can be determined by the assays as described herein, without undue experimention.
Agonist activity was determined utilizing relaxation of carbachol-contracted rat tunica muscularis mucosae. One 2 cm segment of intrathoracic esophagus proximal to the diaphragm was removed from male rats, weighing approximately 300 gm, and the outer muscle layers removed. The inner tunica muscularis mucosa was mounted under 0.2-0.3 g of tension in a tissue bath containing oxygenated Tyrode's solution at 37° C. […] Following a 30 min equilibrium period, tissues were isometrically contracted with carbachol (3 μM) to obtain a tonic contraction. A stable plateau was obtained within 20 min when test compound was added cumulatively to relax the muscle strip. EC50 values were obtained for each agonist in tissues from 5 rats.

[2] = molecular target: T2, 5-HT3 receptor (Rattus norvegicus, UniProt P35563); assay: Serotonin (5-HT3) radioligand binding, [3H]-GR65630, rat brain cortex membranes; settings: for Ki: [3H]-GR65630 0.2 nM, 60 min, 22° C.
T2 construct: Brain cortices were obtained from male rats and a membrane fraction prepared by standard techniques; from tissue; host or cells: rat brain cortex membranes
T2 sequence (P35563 24-483): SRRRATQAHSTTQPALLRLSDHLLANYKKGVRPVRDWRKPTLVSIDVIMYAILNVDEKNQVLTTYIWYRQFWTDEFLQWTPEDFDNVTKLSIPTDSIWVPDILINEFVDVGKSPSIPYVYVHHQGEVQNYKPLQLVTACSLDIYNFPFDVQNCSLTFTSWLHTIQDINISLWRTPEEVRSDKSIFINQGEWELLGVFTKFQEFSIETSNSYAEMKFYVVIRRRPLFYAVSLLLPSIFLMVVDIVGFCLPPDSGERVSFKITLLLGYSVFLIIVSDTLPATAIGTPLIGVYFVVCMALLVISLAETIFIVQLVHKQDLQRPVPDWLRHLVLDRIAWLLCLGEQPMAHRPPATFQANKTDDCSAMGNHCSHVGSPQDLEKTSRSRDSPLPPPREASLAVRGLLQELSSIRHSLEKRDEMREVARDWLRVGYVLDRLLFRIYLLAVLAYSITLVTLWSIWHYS
Experimental: GR65630 binds to the 5-HT3 receptor. Brain cortices were obtained from male rats and a membrane fraction prepared by standard techniques. 0.04 mg of membrane prep was incubated with 0.2 nM […] for 60 minutes at 22° C. […] Membranes were filtered and washed times and the filters were counted to determine [3H]-GR65630 specifically bound. Kilpatrick G. J., Jones B. J. and Tyers M. B. Identification and distribution of 5-HT3 receptors in rat brain using radioligand binding assay. Nature, 330 : 746-748, 1987.

[3] = test system: 5-HT3; assay: Bezold-Jarisch Reflex (inhibition of 5-HT-induced bradycardia in anesthetized mice); format: in vivo; settings: i.p., 30 min before 5-HT 0.25 mg/kg i.v.; >50 percent reduction in bradycardic response vs vehicle considered significant; pentobarbital anesthetized mice
Experimental: as §1
The compound to be evaluated was administered i.p. (mg/kg) to a group of 3 mice. […] A greater than 50 percent (>50) reduction in the bradycardic response relative to vehicle-treated control mice was considered significant.
This method has been described by Saxena, P. R. and Lawang, A., Arch. Int. Pharmacodyn., 277:235-252, 1985.
The assay results for the compounds of the present invention and their Minimum Effective Dose (MED) and the reference compounds and their MEDs are recorded in Table I.

T1 sequence (Q62758 whole entry): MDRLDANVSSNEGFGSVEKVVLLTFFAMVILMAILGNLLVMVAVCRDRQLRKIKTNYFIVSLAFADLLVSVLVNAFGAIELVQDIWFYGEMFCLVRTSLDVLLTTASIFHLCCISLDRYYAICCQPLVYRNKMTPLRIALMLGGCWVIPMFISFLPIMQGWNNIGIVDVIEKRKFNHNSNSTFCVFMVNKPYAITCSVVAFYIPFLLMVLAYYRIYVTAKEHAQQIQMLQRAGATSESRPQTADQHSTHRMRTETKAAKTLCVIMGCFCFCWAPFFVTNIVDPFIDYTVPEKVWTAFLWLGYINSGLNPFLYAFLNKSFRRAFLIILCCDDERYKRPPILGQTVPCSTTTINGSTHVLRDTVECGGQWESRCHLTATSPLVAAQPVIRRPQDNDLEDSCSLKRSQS

| SMILES | EC50 [1] [nM] | Ki [2] [nM] | further results |
| --- | --- | --- | --- |
| CC(C)n1c(=O)n(C(=O)NCC2C3CC4CC2CN(C4)C3)c2ccccc21 (stereo not drawn) [Example 19B, N-(1-azatricyclo[3.3.1.1.^3,7]decan-4-ylmethyl)-2,3-dihydro-3-(1-methylethyl) 2-oxo-1H-benzimidazole-1-carboxamide] | 926 | – | – |
| CC(C)n1c(=O)n(C(=O)NCCC23CCCN2CCC3)c2ccc(Cl)cc21 [Example 12, 5-chloro-N-[2-(hexahydro-7aH-pyrrolizin-7a-yl)ethyl]2,3-dihydro-3-(1-methylethyl)-2-oxo-1H-benzimidazole 1-carboxamide] | 9470 | 2800 | – |
| CCn1c(=O)n(C(=O)NC2C3CC4CC2CN(C4)C3)c2ccccc21 (stereo not drawn) [Example 20, N-(1-azatricyclo[3.3.1.1^3,7]decan-4-yl)-3-ethyl-2,3-dihydro-2-oxo-1H-benzimidazole 1-carboxamide] | 10000 | 19 | – |
| CCn1c(=O)n(C(=O)NC2C3CC4CC2CN(C4)C3)c2cc(Cl)ccc21 (stereo not drawn) [Example 21, N-(1-azatricyclo[3.3.1.1^3,7]decan-4-yl)-6-chloro-3-ethyl-2,3-dihydro 2-oxo-1H-benzimidazole-1-carboxamide] | 2140 | 55 | – |
| CN1[C@@H]2C[C@@H](OC(=O)[C@H](CO)c3ccccc3)C[C@H]1[C@@H]1O[C@@H]12 [scopolamine] | – | – | Minimum Effective Dose (MED) [3]: 2.5 mg/kg |
| CCn1c(=O)n(C(=O)NC2C3CC4CC2CN(C4)C3)c2cc(Cl)ccc21 (stereo not drawn) [Example 18, N-(1-azatricyclo[3.3.1.1^3,7]decan-4-yl)-6-chloro-3-ethyl-2,3-dihydro 2-oxo-1H-benzimidazole-1-carboxamide] | – | 1200 | – |
| CC(C)n1c(=O)n(C(=O)NCCC23CCCN2CCC3)c2cc(Cl)ccc21 [Example 12A, 6-Chloro-N-[2-(hexahydro-7aH-pyrrolizin-7a-yl)ethyl]2,3-dihydro-3-(1-methylethyl)-2-oxo-1H-benzimidazole 1-carboxamide] | 1360 | – | – |
| CCn1c(=O)n(C(=O)NC2C3CC4CC2CN(C4)C3)c2ccccc21 (stereo not drawn) [Example 15, N-(1-azatricyclo[3.3.1.1^3,7]decan-4-yl)-3-ethyl-2,3-dihydro-2-oxo 1H-benzimidazole-1-carboxamide] | 4580 | 92 | – |
| CC(C)n1c(=O)n(C(=O)NC[C@H]2CCN3CCC[C@H]23)c2ccccc21 (relative stereo) [Example 23, cis-N-[(hexahydro-1H-pyrrolizin-1-yl)methyl]-2,3-dihydro-3-(1-methylethyl) 2-oxo-1H-benzimidazole-1-carboxamide] | – | – | Minimum Effective Dose (MED) [3]: 1 mg/kg |
| CC(C)n1c(=O)n(C(=O)NCCC23CCCN2CCC3)c2cc(Cl)c(N)cc21 [Example 12B, 6-Chloro-5-amino-N-[2-(hexahydro-7aH-pyrrolizin-7a-yl)ethyl]-2,3-dihydro-3-(1-methylethyl)-2-oxo-1H-benzimidazole-1-carboxamide] | 374 | – | – |
| CC(C)n1c(=O)n(C(=O)NCC2C3CC4CC2CN(C4)C3)c2cc(Cl)ccc21 (stereo not drawn) [Example 22C, N-(1-azatricyclo[3.3.1.1^3,7]decan-4-ylmethyl)-6-chloro-2,3-dihydro-3-(1-methylethyl) 2-oxo-1H-benzimidazole-1-carboxamide] | 722 | – | – |
| CN1C2CCCC1CC(NC(=O)c1nn(C)c3ccccc13)C2 (stereo not drawn) [BRL-43694] | – | – | Minimum Effective Dose (MED) [3]: 0.05 mg/kg |
| CC(C)n1c(=O)n(C(=O)NCC2C3CC4CC2N(C4)C3)c2ccccc21 (stereo not drawn) [Example 30, N-[(Hexahydro-2β,6β-methano-1H, 7aα-pyrrolizin-1α-yl)methyl]2,3-dihydro-3-(1-methylethyl)-2-oxo-1H-benzimidazole-1-carboxamide] | 219 | – | – |
| Cc1nc[nH]c1CCC(=O)c1cn(C)c2ccccc12 [GR65630, reference compound] | – | – | Bmax ([2]; [3H]-GR65630, rat brain cortex membranes): 154 fmol/mg protein |
| CC(C)n1c(=O)n(C(=O)NC2C3CC4CC2CN(C4)C3)c2cc(Cl)ccc21 (stereo not drawn) [Example 16, N-(1-azatricyclo[3.3.1.1^3,7]decan-4-yl)-6-chloro-2,3-dihydro-3-(1-methylethyl) 2-oxo-1H-benzimidazole-1-carboxamide] | 10000 | 1200 | – |
| CC(C)n1c(=O)n(C(=O)NCC2C3CC4CC2CN4C3)c2ccccc21 (stereo not drawn) [Example 32, N-(Hexahydro-2,6-methano-1H-pyrrolizin-8-ylmethyl]-2,3-dihydro-3(1-methylethyl)-2-oxo-1H-benzimidazole-1-carboxamide] | 1320 | – | – |
| CC(C)n1c(=O)n(C(=O)NC[C@H]2CN3CC[C@H]2C3)c2ccccc21 (relative stereo) [Example 36, N-[(exo-1-azabicyclo[2.2.1]heptan-3-yl)methyl-]-2,3-dihydro-3-(1-methylethyl) 2-oxo-1H-benzimidazole-1-carboxamide] | 302 | – | – |
| CC(C)n1c(=O)n(C(=O)N[C@H]2C[C@@H]3CN(C)C[C@@H]3C2)c2ccccc21 [Example 14A] | 874 | – | – |
| CC(C)n1c(=O)n(C(=O)NCC2C3CC4CC2N(C4)C3)c2ccccc21 (stereo not drawn) [Example 29, N-[(Hexahydro-2β,6β-methano-1H, 7aα-pyrrolizin-1β-yl)methyl]2,3-dihydro-3-(1-methylethyl)-2-oxo-1H-benzimidazole-1-carboxamide] | 1630 | – | – |
| CC(C)n1c(=O)n(C(=O)NCC23CCCN2CCC3)c2ccccc21 [Example 14, N-[(hexahydro-7aH-pyrrolizin-7a-yl)methyl]-2,3-dihydro-3-(1-methylethyl) 2-oxo-1H-benzimidazole-1-carboxamide] | 3830 | 36 | – |
| CC(C)n1c(=O)n(C(=O)NCC23CC4CN(CC4C2)C3)c2cc(Cl)ccc21 [Example 34, N-[(Hexahydro-2,5β-methano-1H-3aα,6aα-cyclopenta[c]-pyrrol-5-yl)methyl]-6-chloro-2,3-dihydro-3-(1-methylethyl)-2-oxo-1-benzimidazole-1-carboxamide] | 248 | – | – |
| CC(C)n1c(=O)n(C(=O)NCC23CC4CN(CC4C2)C3)c2ccccc21 [Example 33, N-[(Hexahydro-2,5β-methano-1H-3aα,6aα-cyclopenta-[c]pyrrol-5-yl)methyl]-2,3-dihydro 3-(1-methylethyl)-2-oxo-1H-benzimidazole-1-carboxamide] | 337 | – | – |
| CCn1c(=O)n(C(=O)NC2C3CC4CC2CN(C4)C3)c2ccc(Cl)cc21 (stereo not drawn) [Example 19, N-(1-azatricyclo[3.3.1.1^3,7]decan-4-yl)-5-chloro-3-ethyl-2,3-dihydro 2-oxo-1H-benzimidazole-1-carboxamide] | – | 1200 | – |
| CC(C)n1c(=O)n(C(=O)N[C@@H]2[C@@H]3C[C@H]4CN(C3)C[C@H]42)c2ccccc21 (relative stereo) [Example 24, N-(hexahydro-1H-2,5β-methano-3aα,6aα-cyclopenta [c]pyrrol-4α-yl)-2,3-dihydro-3-(1-methylethyl)-2-oxo 1H-benzimidazole-1-carboxamide] | 1510 | 2 | – |
| CCn1c(=O)n(C(=O)NC2C3CC4CC2CN(C4)C3)c2ccc(Cl)cc21 (stereo not drawn) [Example 22, N-(1-azatricyclo[3.3.1.1^3,7]decan-4-yl)-5-chloro-3-ethyl-2,3-dihydro 2-oxo-1H-benzimidazole-1-carboxamide] | – | 360 | – |
| CC(C)n1c(=O)n(C(=O)NC[C@@H]2CN3CC[C@H]2C3)c2ccccc21 (relative stereo) [Example 35, N-[(endo-1-azabicyclo[2.2.1]heptan-3-yl)methyl-]-2,3-dihydro-3-(1-methylethyl) -2-oxo-1H-benzimidazole-1-carboxamide] | 294 | – | – |
